From ChEMBL document CHEMBL2074167, “Sterol transport by the human breast cancer resistance protein (ABCG2) expressed in Lactococcus lactis” (J Biol Chem, 2003)

Key:
[1] = target: T1, Broad substrate specificity ATP-binding cassette transporter ABCG2 (Homo sapiens, UniProt Q9UNQ0); experiment: TP_TRANSPORTER: ATPase assay in membrane vesicle from BCRP-expressing Lactococcus lactis cells; type: functional, cell membranes, NZ9000
T1 sequence (Q9UNQ0 whole entry): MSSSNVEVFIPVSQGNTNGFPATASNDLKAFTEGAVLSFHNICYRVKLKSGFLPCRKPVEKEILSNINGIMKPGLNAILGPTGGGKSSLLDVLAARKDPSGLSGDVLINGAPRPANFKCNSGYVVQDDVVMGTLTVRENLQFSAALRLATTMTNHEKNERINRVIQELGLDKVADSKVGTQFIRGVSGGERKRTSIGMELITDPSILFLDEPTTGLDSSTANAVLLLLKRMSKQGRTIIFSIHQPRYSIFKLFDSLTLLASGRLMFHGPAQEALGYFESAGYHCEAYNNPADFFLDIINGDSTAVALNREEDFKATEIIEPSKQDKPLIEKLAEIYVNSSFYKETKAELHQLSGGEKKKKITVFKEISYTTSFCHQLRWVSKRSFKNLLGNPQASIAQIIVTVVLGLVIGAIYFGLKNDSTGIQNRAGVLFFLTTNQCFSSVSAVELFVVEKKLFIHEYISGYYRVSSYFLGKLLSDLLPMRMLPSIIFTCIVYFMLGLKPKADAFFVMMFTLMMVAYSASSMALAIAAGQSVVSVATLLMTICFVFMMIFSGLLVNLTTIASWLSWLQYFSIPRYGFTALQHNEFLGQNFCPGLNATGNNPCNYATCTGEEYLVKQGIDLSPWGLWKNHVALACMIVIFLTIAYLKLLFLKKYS

[2] = target: T1, Broad substrate specificity ATP-binding cassette transporter ABCG2; experiment: TP_TRANSPORTER: uptake in BCRP-expressing Lactococcus lactis cells; type: functional, NZ9000
[3] = target: T1, Broad substrate specificity ATP-binding cassette transporter ABCG2; experiment: TP_TRANSPORTER: growth inhibition in BCRP-expressing Lactococcus lactis cells; type: functional, NZ9000
[4] = target: T1, Broad substrate specificity ATP-binding cassette transporter ABCG2; experiment: TP_TRANSPORTER: uptake in membrane vesicle from BCRP-expressing Lactococcus lactis cells; type: functional, cell membranes, NZ9000

Row | Structure (SMILES) | Activity [1] | Activity [2] | other results
1 | C[C@]12CC[C@H]3[C@@H](CCC4=CC(=O)CC[C@@]43C)[C@@H]1CC[C@@H]2O [TESTOSTERONE] | substrate [] | – | –
2 | CC/C(=C(\c1ccccc1)c1ccc(OCCN(C)C)cc1)c1ccccc1 [TAMOXIFEN] | substrate [] | – | –
3 | COC(=O)c1ccccc1-c1c2ccc(=N)cc-2oc2cc(N)ccc12.Cl [RHODAMINE123] | – | substrate [] | –
4 | C[C@]12CC[C@@H]3c4ccc(O)cc4CC[C@H]3[C@@H]1CC[C@@H]2O [ESTRADIOL] | substrate [] | substrate [] | –
5 | CC(C)CCC[C@@H](C)[C@H]1CC[C@H]2[C@@H]3CC=C4C[C@@H](O)CC[C@]4(C)[C@H]3CC[C@]12C [CHOLESTEROL] | substrate [] | – | –
6 | CC[n+]1c(-c2ccccc2)c2cc(N)ccc2c2ccc(N)cc21.[Br-] [HOMIDIUM BROMIDE] | – | substrate [] | Activity [3]: substrate []
7 | CCOc1ccc(-c2nc3cc(-c4nc5cc(N6CCN(C)CC6)ccc5[nH]4)ccc3[nH]2)cc1 | – | substrate [] | Activity [4]: substrate []
8 | COc1cccc2c1C(=O)c1c(O)c3c(c(O)c1C2=O)C[C@@](O)(C(C)=O)C[C@@H]3O[C@H]1C[C@H](N)[C@H](O)[C@H](C)O1 [DAUNORUBICIN] | substrate [] | – | –
9 | CC(=O)[C@H]1CC[C@H]2[C@@H]3CCC4=CC(=O)CC[C@]4(C)[C@H]3CC[C@]12C [PROGESTERONE] | substrate [] | – | –
